Measurements taken from ChEMBL document CHEMBL1153252, “Anti-human immunodeficiency virus activity and cytotoxicity of derivatized buckminsterfullerenes” (Bioorg Med Chem Lett, 1996).

Key:
[1] = Compound was evaluated for the anti-HIV-1 activity in human peripheral blood mononuclear cells infected with HIV-1LA1.; format: functional
[2] = Compound was evaluated for the toxicity in human PBM cells; format: functional, cell-based
Vero = assay: Compound was evaluated for the toxicity in rapidly dividing Vero cells (African Green monkeys kidney cells); format: functional, cell-based; conditions: Chlorocebus sabaeus

SMILES | EC50 [1] [µM] | EC50 ([1]; Homo sapiens) [µM] | IC50 [2] [µM] | IC50 (Vero) [µM]
COC1CC(=O)CC23C4=c5c6c7c8c9c%10c%11c%12c%13c%14c%15c%16c%17c%18c%19c%20c(c%21c%22c%23c(c5c5c6c6c8c%11c8c%11c%12c%12c%14c(c%15%19)c%14c%20c%22c%15c%19c%23c5c(c68)c%19c%11c%12c%14%15)C%2112)C%18C3C1(C4)C(OC)CC(=O)CC%171C(=C9C7)C%16C%10%13 (single isomer, unassigned; isomer A) | > 100 | – | – | –
COC1CC(=O)CC23C4=c5c6c7c8c9c%10c%11c%12c%13c%14c%15c%16c%17c%18c%19c%20c(c%21c%22c%23c(c5c5c6c6c8c%11c8c%11c%12c%12c%14c(c%15%19)c%14c%20c%22c%15c%19c%23c5c(c68)c%19c%11c%12c%14%15)C%2112)C%18C3C1(C4)C(OC)CC(=O)CC%171C(=C9C7)C%16C%10%13 (stereo in doubt) | 7.7 | – | > 100 | > 100
O=C(CCCc1ccc(C2(c3ccccc3)C34c5c6c7c8c9c%10c(c%11c%12c3c3c5c5c%13c6c6c7c7c9c9c%14c%10c%10c%11c%11c%12c%12c3c3c5c5c%13c%13c6c6c7c9c7c9c%14c%10c%10c%11c%11c%12c3c3c5c5c%13c6c7c6c9c%10c%11c3c56)C824)cc1)NC(CO)(CO)CO (centres undefined) | – | 2.5 | > 100 | > 100
CC12CCC/C(=N\OCC(=O)O)C1C13c4c5c6c7c8c9c%10c%11c%12c%13c%14c%15c(c6c6c4c4c%16c%17c%18c(c%19c%20c1c5c8c1c%20c5c%19c8c%18c%18c%19c%17c%17c4c6c%15c4c%14c6c%12c%12c%14c%11c(c91)c5c%14c8c%18c%12c6c%19c4%17)C%1623)C7C%10%13 (centres undefined) | – | 21.7 | > 100 | > 100
c1ccc(C2(c3ccc4c(c3)OCCOCCOCCOCCOCCO4)C34C5=C6C7=C8Cc9c%10c8c8c%11c%12c%13c%14c%15c(c6c6c%16c%17c(c%18c%19c3c(c3c9c9c%20c%10c%11c%10c%11c%12c%12c%14c(c%15%16)c%14c%17c%15c%18c%16c%19c3c9c3c%16c9c%15c%14c%12c%11c9c3c%20%10)C5)C642)C7C8%13)cc1 (centres undefined) | – | 137 | > 100 | > 100
O=C(O)CO/N=C1\CCC23c4c5c6c7c8c9c%10c%11c%12c%13c%14c%15c%16c%17c%18c(c9c6c6c%18c9c%17c%17c%15c%15c%18c%14c%14c%12c%12c%11c8c(c8c%11c2c2c4c4c(c56)c9c5c4c4c2c2c%11c(c8%12)c%14c%18c2c4c%15c%175)C73C1)C%10C%13%16 (centres undefined) | – | 2.9 | > 100 | > 100
Cc1cn([C@H]2C[C@H](N=[N+]=[N-])[C@@H](CO)O2)c(=O)[nH]c1=O [ZIDOVUDINE] | – | 0.004 | > 100 | –
O=C(O)CCC(=O)OC1CCC23c4c5c6c7c8c9c%10c%11c%12c%13c%14c%15c%16c%17c%18c(c9c6c6c%18c9c%17c%17c%15c%15c%18c%14c%14c%12c%12c%11c8c(c8c%11c2c2c4c4c(c56)c9c5c4c4c2c2c%11c(c8%12)c%14c%18c2c4c%15c%175)C73C1)C%10C%13%16 (centres undefined) | – | 6.3 | > 100 | > 100
O=C(O)CO/N=C1\C=CC23c4c5c6c7c8c9c%10c%11c%12c%13c%14c%15c%16c%17c%18c(c9c6c6c%18c9c%17c%17c%15c%15c%18c%14c%14c%12c%12c%11c8c(c8c%11c2c2c4c4c(c56)c9c5c4c4c2c2c%11c(c8%12)c%14c%18c2c4c%15c%175)C73C1)C%10C%13%16 (centres undefined) | – | 7.3 | > 100 | 33.9

Further lines, with some results ahead:

EC50 [1] [µM] | EC50 ([1]; Homo sapiens) [µM] | SMILES | IC50 [2] [µM] | IC50 (Vero) [µM]
– | 7.3 | O=C(O)CCC(=O)NCCc1ccc(C2(c3ccc(CCNC(=O)CCC(=O)O)cc3)C34c5c6c7c8c9c5c5c%10c%11c%12c(c%13c%14c%15c%16c%17c%18c%19c%20c%21c%22c(c-%13c3c6c%22c3c7c6c7c%13c%22c%23c%24c(c9c5c5c%11c9c(c%15%12)c%16c%11c%18c(c%13c%19c7c%213)c%23c%11c9c%245)C86%22)C%14C%20%17)C%1024)cc1 (centres undefined) | > 100 | > 100
– | 0.9 | COC1C/C(=N\OCC(=O)O)CC23c4c5c6c7c8c9c(c%10c%11c2c2c4c4c%12c5c5c6c6c8c8c%13c9c9c%10c%10c%11c%11c2c2c4c4c%12c%12c5c5c6c8c6c8c%13c9c9c%10c%10c%11c2c2c4c4c%12c5c6c5c8c9c%10c2c45)C713 (centres undefined) | > 100 | > 100
– | 72.7 | CN1CC23C4=C5Cc6c7c5c5c8c9c%10c%11c%12c(c2c2c%13c%14c%15c%16c%17c%18c%19c%20c(c6c6c%20c%20c%18c%18c%21c%17c%14c%14c(c%12%13)c%11c%11c9c9c%12c8c7c6c%12c%20c%18c9c%11c%14%21)=C6CC3(C1)C(C2%15)C61CN(C)CC%16%191)C4C5%10 (centres undefined) | > 100 | > 100
– | 2.2 | CC1C=CC(COC(=O)CCC(=O)O)C23c4c5c6c7c8c9c%10c%11c%12c%13c%14c%15c%16c%17c%18c(c9c6c6c%18c9c%17c%17c%15c%15c%18c%14c%14c%12c%12c%11c8c(c8c%11c2c2c4c4c(c56)c9c5c4c4c2c2c%11c(c8%12)c%14c%18c2c4c%15c%175)C713)C%10C%13%16 (centres undefined) | > 100 | > 100
– | 17.6 | OC1CCC23CC4=c5c6c7c8c9c%10c%11c%12c%13c%14c%15c%16c%17c(c-8c8c%18c%17c%17c(c%19c%20c%21c%22c%23c%24c%25c%26c%27c%28c(c5c(c6%10)c5c%28c%25c(c%13c%24c%14c%22c%16c%17%21)c%115)CC%27=C(C%20C%23%26)C%192C1)C%18C3C41CC(O)CCC871)C9%15%12 (centres undefined) | > 100 | > 100
